# Patent publication US20090111736A1, “Orally-Absorbed Solid Dose Formulation for Vancomycin” (SRI International, priority 2007, published 2009)
# Where “and” joins values, the source holds several entries; their conditions need not be identical. Identical values can stand only once. Counter-ions that a name gives are not always drawn.
# Test system: rat jejunum
# Assay: In vitro mucosal-to-serosal vancomycin transport, modified Ussing chambers, jejunum
# Assay type: in vitro ADME
# Settings: for Ave. Cumulative Amt VCM Released: jejunum
# Source text: We investigated regional variation in permeation of vancomycin (VCM) across various segments of rat intestine and colon in vitro by mounting isolated segments of rat intestine and colon between horizontal modified Ussing chambers. The effects of drug concentration and of addition of a p-glycoprotein inhibitor or permeation enhancer(s) as formulation additives on VCM permeation were also studied in vitro using segments of rat jejunum.
# Methods: A modified Ussing system (Easy mount Ussing system, Physiological Instruments Inc., CA, Item # EM-CSYS-8) with eight sets of chambers was used for all in vitro studies; each set consisted of two parallel diffusion chambers, a heating block for temperature control, needle valves for gas flow adjustment and gas mixing, and Ag/AgCl voltage and current electrodes for measuring transepithelial voltage and for passing current.
# Harvesting of required small intestinal or colon segments of a male rat was performed using experimental procedures described in the literature (Gotoh et al., J Biomol Screen (2005) 10:517-23). The harvested segments of small intestine or colon were mounted on sliders placed between the two horizontal chambers of a modified Ussing system.
# VCM was dissolved in HEPES buffer pH 7.4 (Table 1) previously saturated with 100% O2 or HEPES buffer containing additives selected from permeation enhancer(s) and/or an efflux transport inhibitor (Table 2) to obtain predetermined concentrations of drug and additive(s).
# Drug transport across epithelial membranes of harvested rat small intestine and colon segments, in mucosal-to-serosal (M-to-S) direction, was studied using modified Ussing Chambers. Aliquots of HEPES buffer (5 ml) were initially added to both the mucosal and serosal chambers and allowed to equilibrate for 20 minutes. The HEPES buffer in the mucosal chamber was replaced by a study sample containing VCM alone or VCM and selected additive(s) in HEPES buffer, e.g., 5 mg/mL of VCM dissolved in HEPES buffer containing 10% w/w Labrasol®. Aliquots of 0.5 mL buffer solutions were removed periodically from serosal chambers, and replaced with equal volumes of fresh warm (37±2° C.) HEPES buffer previously saturated with 100% O2. […]
# Changes in transepithelial short-circuit current (in micro-Amps) and membrane resistance (in Ohms) as a function of time were monitored continuously during in vitro studies to serve as indicators of tissue viability and drug permeability, respectively. The buffer samples from the receptor chambers were analyzed for VCM content on a high pressure liquid chromatograph (HPLC; Hewlett Packard Model 1100 series).
# The analysis of VCM samples was performed using a reverse phase gradient HPLC method, with a Hypersil BDS C18 column, 5 μm, 150×4.6 mm., mobile phase consisting of 5 mM potassium phosphate monobasic in water (pH 3) as solvent A and acetonitrile as solvent B at a flow rate of 1 ml/min (Farin et al., J Pharm Biomed Anal (1998) 18:367-72). The eluant was monitored by a UV/diode array detector at 280 nm.
# To compare data obtained from different in vitro experiments, the apparent permeability coefficients were calculated using the equation: […]
# Where dQ/dt is the linear appearance rate of mass in receiver compartment, C0 is the initial solute concentration in donor compartment, and A is the surface area (Luo et al., Drug Metab Dispos (2002) 30:763-70).
smiles,measurement,setting,value
CN[C@H](CC(C)C)C(=O)N[C@H]1C(=O)N[C@@H](CC(N)=O)C(=O)N[C@H]2C(=O)N[C@H]3C(=O)N[C@H](C(=O)N[C@H](C(=O)O)c4cc(O)cc(O)c4-c4cc3ccc4O)[C@H](O)c3ccc(c(Cl)c3)Oc3cc2cc(c3O[C@@H]2O[C@H](CO)[C@@H](O)[C@H](O)[C@H]2O[C@H]2C[C@](C)(N)[C@H](O)[C@H](C)O2)Oc2ccc(cc2Cl)[C@H]1O [Vancomycin hydrochloride],increase in M-to-S transport of VCM,0.15 mM Quinidine added to the serosal chamber,3 fold
same,effect on M-to-S transport of VCM,0.15 mM Quinidine in mucosal chamber,"increased M-to-S transport of VCM, but to a lesser extent"
same,effect on in vitro permeation of VCM,1.0 mM sodium decanoate in mucosal chamber,much greater effect
same,effect on in vitro permeation of VCM,1.0 mM sodium decanoate in serosal chamber,minimal effect
same,effect on M-to-S transport of VCM,bile salts at 20% w/w in mucosal chamber,greatly enhanced M-to-S transport
same,Ave. Cumulative Amt VCM Released,"1.0 mM sodium decanoate in mucosal chamber, 0.5 hr",2.24 ± 3.17 µg
same,Ave. Cumulative Amt VCM Released,"1.0 mM sodium decanoate in mucosal chamber, 1.0 hr",4.52 ± 6.39 µg
same,Ave. Cumulative Amt VCM Released,"1.0 mM sodium decanoate in mucosal chamber, 1.5 hr",11.11 ± 10.44 µg
same,Ave. Cumulative Amt VCM Released,"1.0 mM sodium decanoate in mucosal chamber, 2.0 hr",19.25 ± 14.42 µg
same,Ave. Cumulative Amt VCM Released,"1.0 mM sodium decanoate in mucosal chamber, 2.5 hr",34.10 ± 8.84 µg
same,Ave. Cumulative Amt VCM Released,"1.0 mM sodium decanoate in serosal chamber, 0.5 hr",0.00 ± 0.00 µg
same,Ave. Cumulative Amt VCM Released,"1.0 mM sodium decanoate in serosal chamber, 1.0 hr",0.91 ± 1.28 µg
same,Ave. Cumulative Amt VCM Released,"1.0 mM sodium decanoate in serosal chamber, 1.5 hr",3.91 ± 0.70 µg
same,Ave. Cumulative Amt VCM Released,"1.0 mM sodium decanoate in serosal chamber, 2.0 hr",6.91 ± 0.41 µg
same,Ave. Cumulative Amt VCM Released,"1.0 mM sodium decanoate in serosal chamber, 2.5 hr",10.60 ± 0.28 µg
same,Ave. Cumulative Amt VCM Released,"5 mg/ml vancomycin in HEPES buffer without enhancer, 0.5 hr, hydrochloride",0.00 ± 0.00 µg and 0.00 ± 0.0 µg
same,Ave. Cumulative Amt VCM Released,"5 mg/ml vancomycin in HEPES buffer without enhancer, 1.0 hr",1.06 ± 0.95 µg
same,Ave. Cumulative Amt VCM Released,"5 mg/ml vancomycin in HEPES buffer without enhancer, 1.5 hr",3.73 ± 0.61 µg
same,Ave. Cumulative Amt VCM Released,"5 mg/ml vancomycin in HEPES buffer without enhancer, 2.0 hr",6.94 ± 1.07 µg
same,Ave. Cumulative Amt VCM Released,"5 mg/ml vancomycin in HEPES buffer without enhancer, 2.5 hr",11.08 ± 1.08 µg
same,Ave. Cumulative Amt VCM Released,"5 mg/ml, 0.15 mM Quinidine in mucosal chamber, 0.5 hr",0.00 ± 0.00 µg
same,Ave. Cumulative Amt VCM Released,"5 mg/ml, 0.15 mM Quinidine in mucosal chamber, 1.0 hr",1.72 ± 2.44 µg
same,Ave. Cumulative Amt VCM Released,"5 mg/ml, 0.15 mM Quinidine in mucosal chamber, 1.5 hr",4.91 ± 3.98 µg
same,Ave. Cumulative Amt VCM Released,"5 mg/ml, 0.15 mM Quinidine in mucosal chamber, 2.0 hr",9.00 ± 5.72 µg
same,Ave. Cumulative Amt VCM Released,"5 mg/ml, 0.15 mM Quinidine in mucosal chamber, 2.5 hr",14.14 ± 6.95 µg
same,Ave. Cumulative Amt VCM Released,"5 mg/ml, 0.15 mM Quinidine in serosal chamber, 0.5 hr",1.87 ± 0.57 µg
same,Ave. Cumulative Amt VCM Released,"5 mg/ml, 0.15 mM Quinidine in serosal chamber, 1.0 hr",8.27 ± 3.06 µg
same,Ave. Cumulative Amt VCM Released,"5 mg/ml, 0.15 mM Quinidine in serosal chamber, 1.5 hr",16.77 ± 7.45 µg
same,Ave. Cumulative Amt VCM Released,"5 mg/ml, 0.15 mM Quinidine in serosal chamber, 2.0 hr",26.75 ± 11.57 µg
same,Ave. Cumulative Amt VCM Released,"5 mg/ml, 0.15 mM Quinidine in serosal chamber, 2.5 hr",38.96 ± 12.27 µg
same,Ave. Cumulative Amt VCM Released,"5 mg/ml, slider area 0.5 cm^2, 20% w/w bile salt, 0.5 hr",0.00 ± 0.00 µg
same,Ave. Cumulative Amt VCM Released,"5 mg/ml, slider area 0.5 cm^2, 20% w/w bile salt, 1.0 hr",5.40 ± 2.26 µg
same,Ave. Cumulative Amt VCM Released,"5 mg/ml, slider area 0.5 cm^2, 20% w/w bile salt, 1.5 hr",18.19 ± 7.43 µg
same,Ave. Cumulative Amt VCM Released,"5 mg/ml, slider area 0.5 cm^2, 20% w/w bile salt, 2.0 hr",37.58 ± 9.54 µg
same,Ave. Cumulative Amt VCM Released,"5 mg/ml, slider area 0.5 cm^2, 20% w/w bile salt, 2.5 hr",66.39 ± 18.91 µg
same,Ave. Cumulative Amt VCM Released,"5 mg/ml, slider area 0.5 cm^2, No Q (quinidine study), 0.5 hr",0.00 ± 0.00 µg
same,Ave. Cumulative Amt VCM Released,"5 mg/ml, slider area 0.5 cm^2, No Q (quinidine study), 1.0 hr",1.66 ± 0.43 µg
same,Ave. Cumulative Amt VCM Released,"5 mg/ml, slider area 0.5 cm^2, No Q (quinidine study), 1.5 hr",4.34 ± 1.57 µg
same,Ave. Cumulative Amt VCM Released,"5 mg/ml, slider area 0.5 cm^2, No Q (quinidine study), 2.0 hr",8.73 ± 2.92 µg
same,Ave. Cumulative Amt VCM Released,"5 mg/ml, slider area 0.5 cm^2, No Q (quinidine study), 2.5 hr",14.24 ± 4.56 µg
same,Ave. Cumulative Amt VCM Released,"10 mg/ml in HEPES buffer without enhancer, 0.5 hr",0.00 ± 0.0 µg
same,Ave. Cumulative Amt VCM Released,"10 mg/ml in HEPES buffer without enhancer, 1.0 hr",2.76 ± 0.69 µg
same,Ave. Cumulative Amt VCM Released,"10 mg/ml in HEPES buffer without enhancer, 1.5 hr",6.88 ± 0.98 µg
same,Ave. Cumulative Amt VCM Released,"10 mg/ml in HEPES buffer without enhancer, 2.0 hr",12.86 ± 1.23 µg
same,Ave. Cumulative Amt VCM Released,"10 mg/ml in HEPES buffer without enhancer, 2.5 hr",20.77 ± 1.90 µg
same,Ave. Cumulative Amt VCM Released,"25 mg/ml in HEPES buffer without enhancer, 0.5 hr",0.00 ± 0.0 µg
same,Ave. Cumulative Amt VCM Released,"25 mg/ml in HEPES buffer without enhancer, 1.0 hr",2.90 ± 1.82 µg
same,Ave. Cumulative Amt VCM Released,"25 mg/ml in HEPES buffer without enhancer, 1.5 hr",7.99 ± 5.71 µg
same,Ave. Cumulative Amt VCM Released,"25 mg/ml in HEPES buffer without enhancer, 2.0 hr",21.56 ± 3.84 µg
same,Ave. Cumulative Amt VCM Released,"25 mg/ml in HEPES buffer without enhancer, 2.5 hr",50.91 ± 6.58 µg
